Reference: patent EP0046734A2, “Aminohydroxyphenyl derivatives of cephalosporins, process for their preparation and pharmaceutical compositions containing them” (CIBA-GEIGY AG, priority 1980, dated 1982)
≈ marks a conversion by molar mass, not a printed value.

Columns and labels:
[1] = test system: Escherichia coli DC2; test: Antibiotic activity in vitro, agar dilution method in DST agar (MIC); format: cell-based
Text: (§1) A. Die antibiotische Aktivität der Testverbindungen in vitro wurde durch die Agarverdünnungsmethode nach Ericsson, H.M. und Sherris, S.C., 1971, Acta Path. Microb. Scand. Section B, Suppl. No. 217, Bd. 1-90, in DST Agar ermittelt. Die gefundenen, das Wachstum der Testorganismen noch hemmenden Minimalkonzentrationen (MIC = minimum inhibiting concentrations) werden in Mikrogramm pro Milliliter (µg/ml) für die geprüften Verbindungen in der Tabelle 1 angegeben.

[2] = test system: Streptococcus pyogenes Aronson; test: as above; format: cell-based
Text: as §1

[3] = test system: Klebsiella pneumoniae 372; test: as above; format: cell-based
Text: as §1

[4] = test system: Neisseria meningitidis; test: as above; format: cell-based
Text: as §1

[5] = test system: Proteus mirabilis 774; test: Chemotherapeutic activity in vivo against systemic infection in mice (ED50); parameters: species or system weiblichen SPF, MF2 Mäusen; details: po
Text: (§2) B. Die chemotherapeutsche Wirksamkeit in vivo gegen systemische Infektionen in weiblichen SPF, MF2 Mäusen wurde nach der Methode von Zak, 0., et al., 1979, Drugs Exptl. Clin. Res. 5, 45.59, ermittelt. Die gefundenen ED50 -Werte in Milligramm Substanz pro Kilogramm Maus (mg/kg) gegen eine Anzahl von Mikroorganismen werden für die oral (p.o.) oder subcutan (s.c.) applizierten Testverbindungen in der Tabelle 2 angegeben.

[6] = test system: Klebsiella pneumoniae 327; test: as above; parameters: species or system weiblichen SPF, MF2 Mäusen; details: po
Text: as §2

[7] = test system: Staphylococcus aureus 10 B; test: as above; parameters: species or system weiblichen SPF, MF2 Mäusen
Text: as §2

[8] = test system: Escherichia coli 205; test: as above; parameters: species or system weiblichen SPF, MF2 Mäusen
Text: as §2

Row | SMILES | MIC [1] [mg/L] | MIC [2] [mg/L] | MIC [3] [mg/L] | MIC [4] [mg/L] | ED50 [5] [mg/kg] | ED50 [6] [mg/kg] | ED50 ([7]; po) [mg/kg] | ED50 ([7]; sc) [mg/kg] | ED50 ([8]; po) [mg/kg] | ED50 ([8]; sc) [mg/kg]
1 | COC1=C(C(=O)O)N2C(=O)[C@@H](NC(=O)[C@H](N)c3ccc(O)c(NS(C)(=O)=O)c3)[C@H]2SC1 [Verbindung 1, 7ß-[D-2-Amino-2-(3-methylsulfonylamino-4-hydroxyphenyl)-acetylamino]-3-methoxy-ceph-3-em-4-carbonsäure] | 0.5 (≈ 1.06 µM) | 0.1 (≈ 0.212 µM) | 2 (≈ 4.23 µM) | 1 (≈ 2.12 µM) | 22 | 7 | 1.5 | 3 | 5 | 6
2 | CS(=O)(=O)Nc1cc([C@@H](N)C(=O)N[C@@H]2C(=O)N3C(C(=O)O)=CCS[C@H]23)ccc1O [Verbindung 2, 7ß-[D-2-Amino-2-(3-methylsulfQnylamino-4-hydroxyphenyl)-acetylamino]-ceph-3-em-4-carbonsäure] | 4 (≈ 9.04 µM) | 4 (≈ 9.04 µM) | 4 (≈ 9.04 µM) | 8 (≈ 18.1 µM) | 22 | 3 | 1.5 | 3 | 2.2 | –
3 | CS(=O)(=O)Nc1cc([C@@H](N)C(=O)N[C@@H]2C(=O)N3C(C(=O)O)=C(Cl)CS[C@H]23)ccc1O [Verbindung 3, 7ß-[D-2-Amino-2-(3-methylsulfonylamino-4-hydroxyphenyl)-acetylamino]-3-chlor-ceph-3-em-4-carbonsäure] | 0.5 (≈ 1.05 µM) | 0.5 (≈ 1.05 µM) | 1 (≈ 2.1 µM) | 0.5 (≈ 1.05 µM) | 4 | 3 | 4 | 10 | 2 | 3
4 | CCS(=O)(=O)Nc1cc([C@@H](N)C(=O)N[C@@H]2C(=O)N3C(C(=O)O)=CCS[C@H]23)ccc1O [Verbindung 4, 7ß-[D-2-Amino-2-(3-äthylsulfonylamino-4-hydroxyphenyl)-acetylamino]-ceph-3-em-4-carbonsäure] | 4 (≈ 8.76 µM) | 1 (≈ 2.19 µM) | 4 (≈ 8.76 µM) | 4 (≈ 8.76 µM) | 30 | 1.4 | 1.5 | 3 | 4.5 | 3
5 | CCS(=O)(=O)Nc1cc([C@@H](N)C(=O)N[C@@H]2C(=O)N3C(C(=O)O)=C(Cl)CS[C@H]23)ccc1O [Verbindung 5, 7ß-[D-2-Amino-2-(3-äthylsulfonylamino-4-hydroxyphenyl)-acetylamino]-3-chlor-ceph-3-em-4-carbonsäure] | 2 (≈ 4.07 µM) | 0.5 (≈ 1.02 µM) | 1 (≈ 2.04 µM) | 0.1 (≈ 0.204 µM) | 30 | 1.4 | 7 | 10 | 4.5 | 3
6 | CCS(=O)(=O)Nc1cc([C@@H](N)C(=O)N[C@@H]2C(=O)N3C(C(=O)O)=C(OC)CS[C@H]23)ccc1O [Verbindung 6, 7ß-[D-2-Amino-2-(3-äthylsulfonylamino-4-hydroxyphenyl)-acetylamino]-3-methoxy-ceph-3-em-4-carbonsäure] | 2 (≈ 4.11 µM) | 0.5 (≈ 1.03 µM) | 16 (≈ 32.9 µM) | 0.1 (≈ 0.206 µM) | 30 | 10 | 6 | 15 | 6 | 8
